Legend:
[1] = system: Notch-processing activity of the γ-secretase-complex; test: Notch cell-free assay (NICD production from recombinant Notch substrate N99); type: biochemical, mouse; conditions: 1 μM test compound, 0.3-0.5 μM Notch substrate, 37° C. for 6 to 22 h, western blotting
Procedure: The Notch transmembrane domain is cleaved by gamma secretase to release
Notch Intracellular C-terminal Domain (NICD).
To monitor the effect of compounds on NICD production, a recombinant Notch substrate (N99) was prepared. The Notch substrate, comprised of mouse Notch fragment (V1711-E1809), an N-terminal methionine and a C-terminal FLAG sequence ([…]), was expressed in E. coli and purified on a column containing an anti-FLAG M2 affinity matrix.
A typical Notch cell-free assay consisted of 0.3-0.5 μM Notch substrate, an enriched preparation of γ secretase and 1 μM of a test compound (compounds 8, 15, 92, 108, 114 and 130 of the present invention). Controls included a γ secretase inhibitor (GSI), such as (2S)—N-[2-(3,5-difluorophenyeacetyl]-L-alanyl-2-phenyl-glycine 1,1-dimethylethyl ester (DAPT) or (2S)-2-hydroxy-3-methyl-N-[(1S)-1-methyl-2-oxo-2-[[(1S)-2,3,4,5-tetrahydro-3-methyl-2-oxo-1H-3-benzazepin-1-yl]amino]ethyl]-butanamide (Semagacestat), and DMSO, the final concentration of DMSO being 1%. Recombinant Notch substrate was pre-treated with 17 μM DTT (1,4-dithiothreitol) and 0.02% SDS (Sodium Dodecyl Sulfate) and heated at 65° C. for 10 min. The mixture of substrate, gamma secretase and compound/DMSO was incubated at 37° C. for 6 to 22 hours (h). 6 h incubation was sufficient to produce the maximal amount of NICD and the cleaved product remained stable for an additional 16 h. Reaction products were processed for SDS PAGE (Sodium Dodecyl Sulfate-Poly Acrylamide Gel Electrophoresis) and western blotting. Blots were probed with an anti-Flag M2 antibody, followed by LI-COR infrared secondary antibody, and analyzed with the Odyssey Infrared Imaging System (LI-COR® Biosciences).

[2] = system: T1, Notch-processing activity of the γ-secretase-complex; test: Notch cell-based assay (N2-CHO/DL-CHO co-culture, Dual-Glo luciferase); set-up: species or system mouse; conditions: N2-CHO/DL-CHO co-culture 16 h; five-point curve 3 μM-0.3 nM
T1 construct: average IC50 Notch cell-based assay (luciferase readout); other: N2-CHO/DL-CHO co-culture 16 h; five-point curve 3 μM-
From the text: The Notch cell-based assay was based on the interaction of Notch and its ligand in a co-culture system and utilized the Dual-Glo Luciferase Assay System (Promega) to monitor NICD production. 2 stable cell lines, N2-CHO and DL-CHO, were established to express full-length mouse Notch2 and Delta respectively. Cells that expressed mouse Notch were also transfected with 2 plasmids, pTP1-Luc and pCMV-RLuc, to express firefly and Renilla luciferase. Expression of firefly luciferase was under the control of TP1 promoter that responded to NICD activation.
N2-CHO cells were seeded at 1×10^5/well in 24-well plates the day before transfection. On the second day, cells were double transfected with 3 μg/well pTP1-Luc (expressing firefly luciferase) and 0.3 ng/well pCMV-RLuc (expressing Renilla luciferase). After 6 h incubation, transfected N2-CHO cells were washed and DL-CHO cells (2×10^5 cells/well) were added.
Compounds were pre-mixed with DL-CHO cell suspension in a five-point curve. Typically, compound treatment was performed in duplicate with a serial 1:10 dilution (3 μM-0.3 nM) in DMSO. The final concentration of DMSO in a given culture was 1%. Controls included non-transfected cells and transfected cells treated with a GSI or DMSO only. Luciferase assays were performed after 16 h co-culture and compound treatment.
The luciferase assay was carried out according to manufacture's instructions. Briefly, cells were washed with PBS (Phosphate Buffered Saline), lysed with Passive Lysis Buffer (Promega), and incubated at room temperature for 20 min. Lysates were mixed with Dual-Glo Luciferase Reagent and the firefly luciferase activity was measured by reading the luminescence signal in the EnVision 2101 Multilabel reader. Dual-Glo Stop & Glo Reagent was then added to each well and the Renilla luciferase signal was measured.

| SMILES | melting point | effect on the Notch-processing activity of the γ-secretase-complex (production of NICD) [1] | inhibition in Notch cell-based assay (luciferase readout) [2] |
| --- | --- | --- | --- |
| COc1cc(Nc2cccc3c2nc(-c2ccc(F)cc2)n3C)ccc1-n1cnc(C)c1 [Compound 1] | 130.9 °C | – | – |
| COc1cc(Nc2cccc3c2nc(-c2ccc(F)cc2)n3C)ccc1-n1cnc(C)n1 [Compound 4] | 185.2 °C | – | – |
| COc1cc(Nc2nccc3c2nc(-c2ccc(F)cc2)n3C)ccc1-n1cnc(C)c1 [Compound 8] | – | did not show an effect | – |
| COc1nc(Nc2cccc3c2nc(-c2ccc(F)cc2)n3C)ccc1-n1cnc(C)c1 [Compound 15] | – | did not show an effect | non-inhibitory |
| COc1cc(Nc2nccc3c2nc(-c2ccc(F)cc2)n3C)ccc1-n1cnc(C)n1 [Compound 92] | – | did not show an effect | non-inhibitory |
| COc1cc(-c2nc3c(Nc4ccc(-n5cnc(C)n5)c(OC)c4)nccc3n2C)ccc1Cl [Compound 114] | 186.8 °C | did not show an effect | non-inhibitory |
| COc1cc(Nc2nccc3c2nc(-c2ccccc2C(F)(F)F)n3C)ccc1-n1cnc(C)n1 [Compound 130] | – | did not show an effect | non-inhibitory |
